Measurements from patent EP0707004A1, “1-Arylalcenyl 4-arylmethylpiperazinderivatives, process for their preparation and pharmaceutical composition containing them” (ADIR ET COMPAGNIE, priority 1994, dated 1996).

System: hyperactivité induite par la N-allylnormétazocine
Test: Antagonism of N-allylnormetazocine-induced hyperactivity
Assay type: in vivo
Conditions: dose 32 mg.kg⁻¹; rats; N-allylnormetazocine 50 mg/kg subcutaneous
Excerpt: Ce test a été mis au point par Snyder S.H. et al (J. Neuropsychiatry, 1989, 1 : 7-15). La N-allylnormetazocine ((+) SKF 10047) induit un comportement psychotique chez l'homme et est le prototype d'agoniste pour les récepteurs σ.
La mesure de l'hyperactivité induite par ce produit est donc utilisée comme modèle alternatif pour détecter l'activité antipsychotique des composés agissant sur les récepteurs σ.
Un groupe de 12 rats est traité avec le composé à tester avant l'administration sous-cutanée de 50 mg/kg de la N-allylnormetazocine. 30 minutes plus tard, les animaux sont placés dans un actimètre pendant 30 minutes.
L'halopéridol est utilisé comme composé de référence.

## CCC(=Cc1ccccc1)C(=O)N1CCN(Cc2ccccc2)CC1 [Exemple 9, 1-(3-phényl-2-éthylprop-2-ènoyl)-4-benzylpipérazine]
  antagonisme de l'hypermotilité induite par la N-allylnormétazocine: 42%
